Experimental data: patent publication US8802595B2, “Use of prolines for improving growth and/or yield” (Los Alamos National Security, LLC, priority 2005, dated 2014)

Tests used:
Assay type in all cases: in vivo
oats [1] = assay: Oat tillers with flag leaves emerged at day 28 post-treatment (Example 2)
Excerpt: The oats from example 1 were also monitored for their number of tillers with flag leaves emerged at day 28 post-treatment. This parameter relates to potential for grain yield. Table 2 contains the resultant tillers with flag leaves at 28 days for the same series of isomer mixtures.

oats [2] = assay: Mitigation by pyroglutamate of 2,4-D-induced stress in oats (Example 7); conditions: oat seedlings in greenhouse, 2,4-D at ¼ field strength, pyroglutamate 13.5 g/L, with surfactant/wetting agent
Description: A test was conducted to measure mitigation by pyroglutamate of 2,4-D-induced stress in a monocotyledonous crop plant, oats.
Growing oat plants were treated with a mixture of pyroglutamate (isomer ratio 85:15 of L:D) and 2,4-D and their growth monitored. Oat seedlings, growing vigorously in a greenhouse, were treated with a mixture of 2,4-D and pyroglutamate (13.5 g/L). The 2,4-D was included in the mixture at ¼ of the recommended field strength; a surfactant/wetting agent (Gly Surf P) was also used. The treatment solution was applied with a backpack R&D sprayer using 2 passes over the plants to assure that all plants received treatment solution. It was estimated that this simulated a ½ strength field dose. These plants were compared with plants treated with the herbicide and surfactant/wetting agent as well as with controls treated only with the surfactant/wetting agent (controls).

morning glory = assay: Herbicidal killing rate on morning glory (Example 8); conditions: recommended field strength application, 25 plants each treatment
Description: (§1) Two dicotyledenous plants, white clover and morning glory were treated with the manufacturer's recommended field strength application and the killing rate was measured. Growing morning glory and clover plants (25 each treatment) treated with either 2,4-D alone or a mixture of 2,4-D and pyroglutamate were killed with the same efficacy, 100%.

white clover = assay: Herbicidal killing rate on white clover (Example 8); conditions: recommended field strength application, 25 plants each treatment
Description: as §1

[3] = test system: Commercial field grown wheat; assay: Grain yield of field grown wheat sprayed at flag leaf stage (Example 5); conditions: wheat sprayed one time at flag leaf stage, harvested at maturity
Excerpt: Commercial field grown wheat was sprayed one time with the pyroglutamate composition (isomer ratio 85:15 of L:D) at the flag leaf stage using the same treatment solution as described in our other plant treatments. Grain was harvested at maturity; the treated plots yielded 0.65 T/hectare more (7% increase) grain (seed) than the untreated plots.

[4] = test system: Commercial field grown table grapes; assay: Yield of field grown table grapes sprayed twice (Example 6); conditions: 25 gm per acre
Excerpt: Commercial field grown table grapes were at sprayed twice the first time at 6-12″ of new vine growth and the second spraying 2 months later. The pyroglutamate composition (isomer ratio 85:15 of L:D) was applied at a rate of 25 gm per acre.

O=C(O)[C@@H]1CCC(O)=N1 [Series 1, pyroglutamate]
Tillers with flag leaves (oats [1]; listed as 1): 20

O=C(O)COc1ccc(Cl)cc1Cl [2,4-D, 2,4-dichlorophenoxy acetic acid]
average plant fresh weight (oats [2]): 2.29 g | killing efficacy (morning glory): 100% | killing efficacy (white clover): 100%

O=C(O)[C@@H]1CCC(O)=N1 [Series 6, pyroglutamate]
Tillers with flag leaves (oats [1]; listed as 6): 37

O=C(O)[C@@H]1CCC(O)=N1 [Series 7, pyroglutamate]
Tillers with flag leaves (oats [1]; listed as 7): 29

O=C(O)[C@@H]1CCC(O)=N1 [Series 8, pyroglutamate]
Tillers with flag leaves (oats [1]; listed as 8): 31

O=C(O)[C@@H]1CCC(O)=N1 [Series 9, pyroglutamate]
Tillers with flag leaves (oats [1]; listed as 9): 23

O=C(O)[C@@H]1CCC(O)=N1 [Series 3, pyroglutamate]
Tillers with flag leaves (oats [1]; listed as 3): 17

O=C(O)[C@@H]1CCC(O)=N1 [Series 4, pyroglutamate]
Tillers with flag leaves (oats [1]; listed as 4): 34

O=C(O)[C@@H]1CCC(O)=N1 [Series 12, pyroglutamate]
Tillers with flag leaves (oats [1]; listed as 12): 24

O=C(O)[C@@H]1CCC(O)=N1 [Series 2, pyroglutamate, reference compound]
Tillers with flag leaves (oats [1]; listed as 2): 24

O=C(O)[C@@H]1CCC(O)=N1 [pyroglutamate composition (isomer ratio 85:15 of L:D), pyroglutamate]
grain (seed) yield more than untreated plots [3]: 0.65 T/hectare | increase in grain yield versus untreated plots [3]: 7% | greater yield of harvestable grapes than untreated plots [4]: 13.5% | yield of harvestable grapes [4]: 1045 standard boxes

O=C(O)[C@@H]1CCC(O)=N1 [Series 11, pyroglutamate]
Tillers with flag leaves (oats [1]; listed as 11): 26

O=C(O)[C@@H]1CCC(O)=N1 [Series 10, pyroglutamate]
Tillers with flag leaves (oats [1]; listed as 10): 22

O=C(O)[C@@H]1CCC(O)=N1 [Series 5, pyroglutamate]
Tillers with flag leaves (oats [1]; listed as 5): 33
